Columns and labels:
[1] = solubility remark in hepatotoxicity study; format: physicochemical
Protocol: (§1) For the hepatotoxicity study, mice were kept fasted overnight. The following morning, the compounds were administered orally under ether anesthesia. […] Paracetamol was dissolved in 0.5% tragacanth in saline solution. 24 hours after administration of the compounds, blood was withdrawn from the orbital plexus of the mice anesthetized with ether, and placed in heparinized capillary tubes. The samples were centrifuged at 2000 rpm for 10 minutes, and the plasma glutamic-oxaloacetic transaminase (GOT) and glutamicpyruvic transaminase (GPT) levels were determined spectrophotometrically using Sigma kits. The number of animals used in each group is indicated within each column.

[2] = test system: pain response (tail flick) in CD-1 mice; assay: tail flick analgesic test; format: in vivo, CD-1 mice (Charles-River); conditions: for analgesic activity in tail flick test: mice, oral
Protocol: (§2) Analgesic activity was measured in CD-1 mice (Charles-River) on the basis of the following three methods:
In the tail flick method (D'Amour, F. E., Smith, D. L., J. Pharmacol. Exp. Ther. 72, 74, 1941), the tail of each mouse is exposed to a concentrated light beam; when the animal feels pain, it removes its tail abruptly from said beam, and the latency time of this flick response is measured. The compound indicated by each symbol was administered orally to groups of 10 mice at the doses indicated as abscissae. The analgesia was quantified before and 15, 30, 60 and 120 minutes after the administration of each compound. The peak activity (30 minutes) was plotted as the percentage of mice in which the latency time for flicking the tail was at least doubled.

[3] = test system: writhes produced by intraperitoneal acetic acid in CD-1 mice; assay: acetic acid writhing test; format: in vivo, CD-1 mice (Charles-River); conditions: oral; for ED50: Mus musculus, 25 min, 0.4% acetic acid i.p. 25 minutes later
Protocol: as §2
(§3) The third method consists in measuring the number of writhes performed by a mouse as a manifestation of the pain produced by an intraperitoneal injection of 10 mL/kg of 0.4% acetic acid solution. […] Following oral administration of each compound, the mice (groups of 8 or more) received, 25 minutes later, an intraperitoneal injection of 10 mL/kg of 0.4% acetic acid. The number of writhes was counted 5-15 minutes after the injection of acetic acid.

[4] = test system: pain response (hotplate) in CD-1 mice; assay: hotplate analgesic test; format: in vivo, CD-1 mice (Charles-River); conditions: for analgesic activity in hotplate test (words): mice, oral
Protocol: as §2
The second method employed is the hotplate method (Wolfe, G. and MacDonald, A. D., J. Pharmacol. Exp. Ther. 80, 300, 1944). The mouse is placed on a plate at 54° C., and the latency time of withdrawal of a hind foot or a jump is measured. Groups of 10 mice, to which the compounds were administered orally at the doses indicated as abscissae, were subjected to the hotplate test before and at the end of 30 and 60 minutes following administration of the compounds. The mean latency at 30 and 60 minutes minus the baseline latency is plotted as ordinates.

[5] = test system: yeast-induced pyretic response in Sprague-Dawley rats; assay: antipyretic activity (yeast-induced temperature increase); format: in vivo; conditions: oral; for antipyretic effect: at the doses studied
Protocol: Antipyretic activity was determined in Sprague-Dawley rats weighing 130-220 g. The animals were injected subcutaneously with a 15% suspension of yeast dissolved in saline solution (1 mL/100 g body weight). Body temperature was measured by means of a rectal thermistor connected to a Cole-Palmer remote thermometer. The temperature at which the experiment was started was the temperature determined 2 hours after the administration of yeasts. Temperature measurements were subsequently made in animals to which paracetamol (standard) or the test compound was administered orally (Suspension K, Bioserve). The results, expressed as the percentage increase in temperature from the baseline value to that obtained 6 hours after the subcutaneous administration of yeast, are given in FIG. 4.

mice = assay: mortality after oral administration; conditions: summary statement
Protocol: (§4) Toxicity studies were based on the measurement of two parameters: mortality and hepatotoxicity.
Mortality was determined by means of the oral administration of 1 g/kg of paracetamol or the test compound (in Suspension K, Bioserve). For this purpose, the number of mice surviving 18 hours after the administration of each compound was counted.

[6] = test system: pain response in CD-1 mice; assay: overall analgesic activity (tail flick, hotplate and acetic acid tests); format: in vivo, CD-1 mice (Charles-River); conditions: oral
Protocol: as §2, §3

[7] = test system: plasma GPT and GOT transaminase levels; conditions: mouse, in vivo
Protocol: as §4, §1

| Structure (SMILES) | solubility [1] | analgesic activity in tail flick test [2] | ED50 [3] | analgesic activity in acetic acid test [3] | analgesic activity in hotplate test (words) [4] | antipyretic effect [5] | antipyretic effect ([5]; listed as Example I) | toxicity compared with paracetamol (mice) | analgesic profile / analgesic activity [6] | analgesic profile / analgesic activity ([6]; listed as Example I) | hepatotoxicity [7] | ED50 ([2]; Mus musculus, po, read-out: ED50, tail flick test) | ED50 ([4]; Mus musculus, po, read-out: ED50, hotplate test) | analgesic activity in hotplate test (words) ([4]; listed as paracetamol) | ED50 ([5]; Rattus norvegicus, yeast s.c., read-out: ED50, reduction of pyretic response) |
| --- | --- | --- | --- | --- | --- | --- | --- | --- | --- | --- | --- | --- | --- | --- | --- |
| O=C(CN1C(=O)c2ccccc2S1(=O)=O)Nc1ccc(O)cc1 [Example 1, 2-[2,3-Dihydro-3-oxo-1,2-benzisothiazol-2-yl 1,1-dioxide]-N-(4-hydroxyphenyl)acetamide] | poor solubility | did not display activity | 121 mg/kg | displayed an analgesic effect | did not display activity | did not display antipyretic effects | not possessing antipyretic effects | much lower toxicity | analgesic profile identical to that of paracetamol | analgesic activity equivalent to that of paracetamol | lacks hepatotoxicity | – | – | – | – |
| CN1CC[C@]23c4c5ccc(O)c4O[C@H]2[C@@H](O)C=C[C@H]3[C@H]1C5 [Morphine] | – | active | – | active | active | – | – | – | – | – | – | 28.5 mg/kg | 22.3 mg/kg | – | – |
| CC(=O)Nc1ccc(O)cc1 [Paracetamol] | – | did not display activity | 130 mg/kg | effective | minimally active | reduced the pyretic response in a dose-dependent manner | – | – | – | – | – | – | – | did not display activity | 77.7 mg/kg |
